pIC50, pKi: −log10 of the molar value. Structures can show the parent of a compound that is named as a salt. Where two headings read alike, the source gives them in different places.
Assays:
[1] = biological target: human FLAP (Homo sapiens (Human), UniProt P20292); test: FLAP binding assay (HTRF format)
How it was run: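 Samples were run in duplicate on each of two plates and the plate results averaged. Read-out is the HTRF signal ratio.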

[2] = test system: leukotriene pathway in human whole blood (LTB4 levels); test: Human whole blood assay (A23187-stimulated LTB4); assay type: cell-based; settings: Homo sapiens, read-out: LTB4 IC50 1:1
How it was run: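 Blood (heparin) diluted 1:1 RPMI; compound pre-incubation 15 min, 37° Celsius; A23187 7 μg/mL, 30 min, 37° Celsius; plasma LTB4 by commercial kit. IC50 via 4-parameter equation.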

[3] = human FLAP wild type, HTRF format, average of two plates, duplicates
[4] = human whole blood diluted 1:1 in RPMI, A23187-stimulated LTB4
[5] = read-out: FLAP Binding wild type HTRF Ki
[6] = human whole blood diluted 1:1, A23187-stimulated

Chain of human FLAP (P20292 whole entry): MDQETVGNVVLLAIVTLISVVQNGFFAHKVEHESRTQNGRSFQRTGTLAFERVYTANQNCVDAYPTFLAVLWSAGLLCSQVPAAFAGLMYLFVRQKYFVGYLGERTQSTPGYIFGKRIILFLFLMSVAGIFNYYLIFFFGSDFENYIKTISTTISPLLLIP

| SMILES | pKi [1, 3] | pIC50 [2, 4] | pIC50 [2, 6] | pKi ([1]; wild type FLAP, HTRF format) | pKi [1, 5] |
| --- | --- | --- | --- | --- | --- |
| CC(C)(C)S(=O)(=O)c1ncccc1-c1ccc(-c2cnc(N)nc2)c(F)c1 [Example 811, 5-(4-(2-(tert-Butylsulfonyl)pyridin-3-yl)-2-fluorophenyl)pyrimidin-2-amine formic acid salt] | – | – | 6.27 | – | 6.50 |
| Nc1cnc(-c2ccc(-c3ccccc3S(=O)(=O)N3C[C@H]4C[C@@H]3CN4)cc2F)cn1 [Example 130, 5-(2′-((1R,4R)-2,5-Diazabicyclo[2.2.1]heptan-2-ylsulfonyl)-3-fluoro-[1,1′-biphenyl]-4-yl)pyrazin-2-amine] | 6.89 | 6.20 | – | – | – |
| Nc1cnc(-c2ccc(-c3ccccc3Sc3cnccn3)cc2F)cn1 [Example 218, 5-[3-Fluoro-2′-(pyrazin-2-ylsulfanyl)biphenyl-4-yl]pyrazin-2-amine hydrochloride] | – | 7.54 | – | – | 8.52 |
| Nc1cnc(-c2ccc(-c3ccccc3S(=O)(=O)NCC3CNC3)cc2F)cn1 [Example 125, 4′-(5-Aminopyrazin-2-yl)-N-(azetidin-3-ylmethyl)-3′-fluorobiphenyl-2-sulfonamide] | 7.30 | < 5.00 | – | – | – |
| Nc1cnc(-c2ccc(-c3ccccc3S(=O)(=O)NC[C@@H](O)CO)cc2F)cn1 [Example 105, (R)-4′-(5-Aminopyrazin-2-yl)-N-(2,3-dihydroxypropyl)-3′-fluoro-[1,1′-biphenyl]-2-sulfonamide] | 7.60 | 6.32 | – | – | – |
| Nc1ncc(-c2ccc(-c3ccccc3S(=O)(=O)N[C@@H](c3ccccc3)C(F)(F)F)cc2F)cn1 [Example 292, 4′-(2-Aminopyrimidin-5-yl)-3′-fluoro-N-[(1S)-2,2,2-trifluoro-1-phenylethyl]biphenyl-2-sulfonamide trifluoroacetic acid salt] | – | 5.99 | – | – | 7.92 |
| Nc1cnc(-c2ccc(-c3ccccc3S(=O)(=O)N[C@H](CO)c3ccccc3)cc2F)cn1 [Example 81, 4′-(5-Aminopyrazin-2-yl)-3′-fluoro-N-[(1S)-2-hydroxy-1-phenylethyl]biphenyl-2-sulfonamide] | 8.22 | 6.82 | – | – | – |

Continued, in another order:

| pKi [1, 3] | pIC50 [2, 4] | pIC50 [2, 6] | pKi ([1]; wild type FLAP, HTRF format) | SMILES | pKi [1, 5] |
| --- | --- | --- | --- | --- | --- |
| 8.70 | 7.41 | – | – | CCNS(=O)(=O)c1cc(C(F)(F)F)ccc1-c1ccc(-c2cnc(N)nc2)c(F)c1 [Example 327, 4′-(2-Aminopyrimidin-5-yl)-N-ethyl-3′-fluoro-4-(trifluoromethyl)biphenyl-2-sulfonamide] | – |
| 7.85 | 7.21 | – | – | Nc1ncc(-c2ccc(-c3ccccc3Sc3ncncc3N)cc2F)cn1 [Example 331, 5-{2′-[(5-Aminopyrimidin-4-yl)sulfanyl]-3-fluorobiphenyl-4-yl}pyrimidin-2-amine formate salt] | – |
| 8.30 | 7.59 | – | – | Nc1ccc(-c2ccc(-c3ccccc3S(=O)(=O)N3CCC(CO)CC3)cc2F)cn1 [Example 361, (1-((4′-(6-Aminopyridin-3-yl)-3′-fluoro-[1,1′-biphenyl]-2-yl)sulfonyl)piperidin-4-yl)methanol] | – |
| – | – | 6.38 | ~6.45 | COc1c(-c2ccccc2S(C)(=O)=O)ccc(-c2cnc(N)cn2)c1F [Example 835, 5-[3-Fluoro-2-methoxy-2′-(methylsulfonyl)biphenyl-4-yl]pyrazin-2-amine] | – |
| – | – | 6.87 | 7.33 | Nc1ncc(-c2ccc(-c3ccccc3S(=O)(=O)NC(C3CC3)C3CC3)cn2)cn1 [Example 684, 2-[6-(2-Aminopyrimidin-5-yl)pyridin-3-yl]-N-(dicyclopropylmethyl)benzenesulfonamide trifluoroacetic acid salt] | – |
| 7.48 | 6.01 | – | – | CS(=O)(=O)c1ccccc1-c1ccc(-c2cnc3[nH]ccc3n2)c(F)c1 [Example 377, 2-[3-Fluoro-2′-(methylsulfonyl)biphenyl-4-yl]-5H-pyrrolo[2,3-b]pyrazine] | – |
| 6.89 | 5.96 | – | – | Cn1c(S(=O)(=O)c2ccccc2-c2ccc(-c3cnc(N)nc3)c(F)c2)nc2ccccc21 [Example 320, 5-{3-Fluoro-2′-[(1-methyl-1H-benzimidazol-2-yl)sulfonyl]biphenyl-4-yl}pyrimidin-2-amine] | – |
